One assay addresses T1, c-Met (Homo sapiens, UniProt P08581).
T1 construct: endogenous in cells; host or cells: A549 cells
Description: c-Met cell-based assay (phospho-c-Met ELISA, A549 cells). Particulars: compound at 100 nM. On the procedure: A procedure for standard cell-based assay for c-Met kinase activity can be used to test compounds of this invention for their inhibitory effect on this kinase and to identify c-Met antagonists.
Specifically, a compound to be tested was first dissolved in DMSO to a concentration of 10 mM and stored at −20° C. The activity of c-Met in cells depends on the phosphorylation level at its intracellular domain induced by its ligand, Hepatocyte growth factor (HGF). In order to induce the cells to produce phosphate c-Met, paracrine HGF-dependent NSCLC (None Small Cell Lung Cancer) A549 cells were grown in DMEM with 10% FBS.
To screen compounds of this invention for their inhibitory effect on c-Met kinase, the ELISA kit (R&D Systems) was used. One day before screening procedure, A549 cells were grown in DMEM without the presence of serum. On the day of screening procedure, various concentrations of compounds (from 0.5 nM to 500 nM) were added into the culture medium. Two hours later, 20% of FBS (Fetal Bovine Serum) was added into the medium to stimulate the expression of phosphor-c-Met. After 20 minutes, cell lysate from approximately 5×10^5 A549 cells were reacted with anti-phosphor-c-Met or anti total c-Met antibody in 96 well plates. In the presence of detection antibody, the phosphor-c-Met or total c-Met can be detected with Streptavidin-HRP (R&D Systems) followed by chemiluminescence detection.

Another assay deals with T2, VEGFR2 (Homo sapiens, UniProt P35968).
T2 construct: expressed in transfected cells; host or cells: CHO cells, pcDNA3.1 plasmid
As to the kind of experiment: VEGFR2 cell-based assay (phospho-VEGFR2 ELISA, transfected CHO cells). The conditions noted are these: compound at 100 nM, read-out: % VEGFR2 kinase activity remains. As to the method:
A standard cell-based assay for VEGFR2 kinase activity can be used to test compounds of this invention and to identify VEGFR2 antagonists.
Specifically, a compound to be tested was first dissolved in DMSO to a concentration of 10 mM and stored at −20° C. The activity of VEGFR2 in cells depends on the phosphorylation level at its intracellular domain induced by the ligand. In order to express VEGFR2 in the cells, full length VEGFR2 sequence was cloned into PC-DNA3.1 vector, the plasmid was then transfected into CHO cells. After 48 hours, the expression of VEGFR2 in transfected CHO cells was confirmed by regular western blotting.
To screen the compounds of this invention, the ELISA kit (R&D Systems) was used. One day before the screening, CHO cells transfected with full length VEGFR2 plasmid were grown in DMEM medium without the presence of serum. On the day of screening, various concentrations of compounds (From 0.5 nM to 500 nM) were added into DMEM medium. Two hours later, 20% of FBS (Fetal Bovine Serum) was added into the medium to stimulate the production of phosphor-VEGFR2. Cell lysate from approximately 5×10^5 transfected CHO cells were reacted with anti-phosphor-VEGFR2 or anti-total VEGFR2 antibody in 96 well plates. In the presence of detection antibody, the phosphor-VEGFR2 or total VEGFR2 were detected with Streptavidin-HRP (R&D Systems) followed by chemiluminescence detection.
(In general: An ELISA detects its analyte on a solid surface through an enzyme-linked reagent.)

Molecules are shown by their SMILES. Counter-ions that a name gives are not always drawn. Some results are limits rather than exact numbers.

T2 sequence (P35968 20-1356, species assumed): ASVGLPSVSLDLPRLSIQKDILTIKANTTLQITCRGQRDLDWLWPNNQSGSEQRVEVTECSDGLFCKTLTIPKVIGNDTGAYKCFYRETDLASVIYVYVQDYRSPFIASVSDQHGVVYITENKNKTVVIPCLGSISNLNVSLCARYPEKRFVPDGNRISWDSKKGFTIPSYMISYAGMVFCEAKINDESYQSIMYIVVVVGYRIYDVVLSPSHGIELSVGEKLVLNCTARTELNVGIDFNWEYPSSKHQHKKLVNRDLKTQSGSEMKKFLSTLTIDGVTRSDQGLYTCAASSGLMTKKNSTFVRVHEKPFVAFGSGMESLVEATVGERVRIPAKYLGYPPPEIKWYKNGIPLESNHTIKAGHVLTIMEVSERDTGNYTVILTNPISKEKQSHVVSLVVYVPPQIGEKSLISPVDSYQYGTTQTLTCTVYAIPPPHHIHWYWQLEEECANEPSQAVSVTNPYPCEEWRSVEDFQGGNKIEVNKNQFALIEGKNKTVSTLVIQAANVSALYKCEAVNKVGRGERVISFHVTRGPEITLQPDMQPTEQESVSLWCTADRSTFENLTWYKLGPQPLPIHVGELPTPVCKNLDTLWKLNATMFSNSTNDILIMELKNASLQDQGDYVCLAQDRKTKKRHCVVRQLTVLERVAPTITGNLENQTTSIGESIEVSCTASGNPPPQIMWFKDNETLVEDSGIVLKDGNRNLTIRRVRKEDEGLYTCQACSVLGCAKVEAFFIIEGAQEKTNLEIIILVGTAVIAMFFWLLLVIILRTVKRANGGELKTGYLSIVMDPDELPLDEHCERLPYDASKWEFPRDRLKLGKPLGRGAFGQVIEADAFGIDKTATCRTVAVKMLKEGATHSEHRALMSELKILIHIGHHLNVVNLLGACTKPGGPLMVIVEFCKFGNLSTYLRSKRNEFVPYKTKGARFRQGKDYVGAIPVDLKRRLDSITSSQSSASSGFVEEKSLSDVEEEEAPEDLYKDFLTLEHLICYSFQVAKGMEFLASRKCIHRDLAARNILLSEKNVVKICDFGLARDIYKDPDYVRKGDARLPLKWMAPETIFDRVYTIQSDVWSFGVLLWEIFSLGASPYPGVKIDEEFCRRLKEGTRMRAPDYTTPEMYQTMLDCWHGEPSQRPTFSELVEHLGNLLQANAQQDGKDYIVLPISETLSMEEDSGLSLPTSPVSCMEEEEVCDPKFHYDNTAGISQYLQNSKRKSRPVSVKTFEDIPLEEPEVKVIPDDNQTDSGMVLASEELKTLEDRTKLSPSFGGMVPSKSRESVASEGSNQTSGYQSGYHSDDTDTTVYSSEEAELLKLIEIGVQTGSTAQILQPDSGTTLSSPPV
T1 sequence (P08581 25-1390): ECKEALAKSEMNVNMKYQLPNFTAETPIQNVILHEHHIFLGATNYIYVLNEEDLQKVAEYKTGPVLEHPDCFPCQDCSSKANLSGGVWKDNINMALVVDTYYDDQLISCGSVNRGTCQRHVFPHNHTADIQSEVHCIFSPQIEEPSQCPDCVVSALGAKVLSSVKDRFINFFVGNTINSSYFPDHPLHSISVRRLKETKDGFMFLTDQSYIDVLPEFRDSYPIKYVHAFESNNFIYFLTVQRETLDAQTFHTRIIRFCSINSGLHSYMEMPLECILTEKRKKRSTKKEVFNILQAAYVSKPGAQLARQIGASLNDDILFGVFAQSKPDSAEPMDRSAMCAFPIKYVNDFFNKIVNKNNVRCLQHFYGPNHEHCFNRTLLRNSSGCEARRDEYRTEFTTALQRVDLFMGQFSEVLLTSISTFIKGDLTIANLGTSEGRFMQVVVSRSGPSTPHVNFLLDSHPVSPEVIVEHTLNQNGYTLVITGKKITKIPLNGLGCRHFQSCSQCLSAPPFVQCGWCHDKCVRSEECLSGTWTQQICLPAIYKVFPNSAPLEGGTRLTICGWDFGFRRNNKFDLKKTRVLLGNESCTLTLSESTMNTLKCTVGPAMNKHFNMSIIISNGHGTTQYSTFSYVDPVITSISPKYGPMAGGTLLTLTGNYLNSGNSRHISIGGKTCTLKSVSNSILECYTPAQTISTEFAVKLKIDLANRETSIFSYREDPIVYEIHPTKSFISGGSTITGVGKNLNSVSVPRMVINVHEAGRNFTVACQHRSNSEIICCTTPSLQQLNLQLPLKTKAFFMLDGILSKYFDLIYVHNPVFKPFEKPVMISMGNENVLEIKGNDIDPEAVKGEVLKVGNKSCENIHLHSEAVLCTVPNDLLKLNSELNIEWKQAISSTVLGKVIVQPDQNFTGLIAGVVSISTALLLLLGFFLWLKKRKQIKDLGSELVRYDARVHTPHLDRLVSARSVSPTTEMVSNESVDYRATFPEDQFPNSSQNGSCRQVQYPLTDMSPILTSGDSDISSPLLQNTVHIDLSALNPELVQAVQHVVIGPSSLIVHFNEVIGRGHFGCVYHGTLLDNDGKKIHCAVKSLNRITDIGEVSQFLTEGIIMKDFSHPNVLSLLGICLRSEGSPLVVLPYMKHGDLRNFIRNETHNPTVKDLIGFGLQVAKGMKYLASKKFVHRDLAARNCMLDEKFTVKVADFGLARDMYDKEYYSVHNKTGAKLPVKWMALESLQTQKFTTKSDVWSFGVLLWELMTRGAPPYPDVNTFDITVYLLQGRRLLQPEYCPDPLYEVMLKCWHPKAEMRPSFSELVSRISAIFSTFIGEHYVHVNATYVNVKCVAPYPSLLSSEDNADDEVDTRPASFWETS

On to `Cl.N#Cc1ccc(NC(=O)Nc2cccc3c2ccn3Cc2c[nH]c3ncccc23)cc1` [Example 27, 1-(4-Cyanophenyl)-3-[1-(1H-pyrrolo[2,3-b]pyridin-3-ylmethyl)-1H-indol-4-yl]urea hydrochloride], for which the “% c-Met kinase activity remains” value at c-Met is recorded as “A (the percentage of kinase activity remains is below 70%)”. On VEGFR2, the remaining activity at 0.1 µM is < 70%.

On to `Cl.O=C(Nc1cccc(C(F)(F)F)c1)Nc1cccc2c1ccn2Cc1c[nH]c2ncccc12` [Example 24, 1-(3-Trifluoromethylphenyl)-3-[1-(1H-pyrrolo[2,3-b]pyridin-3-ylmethyl)-1H-indol-4-yl]urea hydrochloride], for which, at c-Met, the “% c-Met kinase activity remains” value is “A (the percentage of kinase activity remains is below 70%)”. For the same molecule, the remaining activity at 0.1 µM at VEGFR2 was < 70%.

As for `Cl.O=C(Nc1ccccc1OC(F)(F)F)Nc1cccc2c1ccn2Cc1c[nH]c2ncccc12` [Example 20, 1-(2-Trifluoromethoxyphenyl)-3-[1-(1H-pyrrolo[2,3-b]pyridin-3-ylmethyl)-1H-indol-4-yl]urea hydrochloride], the “% c-Met kinase activity remains” value on c-Met is on record as “A (the percentage of kinase activity remains is below 70%)”. Further, at VEGFR2, the remaining activity at 0.1 µM is < 70%.

`COc1ccc(NC(=O)Nc2cccc3c2ccn3Cc2c[nH]c3ncccc23)cc1.Cl` [Example 19, 1-(4-Methoxyphenyl)-3-[1-(1H-pyrrolo[2,3-b]pyridin-3-ylmethyl)-1H-indol-4-yl]urea hydrochloride]: the “% c-Met kinase activity remains” value at c-Met is “A (the percentage of kinase activity remains is below 70%)”. In addition, on VEGFR2, the remaining activity at 0.1 µM was < 70%.

With `Cc1ccc(NC(=O)Nc2cccc3c2ccn3Cc2c[nH]c3ncccc23)cc1.Cl` [Example 16, 1-(4-Methylphenyl)-3-[1-(1H-pyrrolo[2,3-b]pyridin-3-ylmethyl)-1H-indol-4-yl]urea hydrochloride], the “% c-Met kinase activity remains” value on c-Met was “A (the percentage of kinase activity remains is below 70%)”. In addition, on VEGFR2, the remaining activity at 0.1 µM was ≥ 70%.

As to `Cl.O=C(Nc1cc(Br)ccc1F)Nc1cccc2c1ccn2Cc1ccnc2[nH]ccc12` [Example 57, 1-(2-Fluoro-5-bromophenyl)-3-[1-(1H-pyrrolo[2,3-b]pyridin-4-ylmethyl)-1H-indol-4-yl]urea hydrochloride], the “% c-Met kinase activity remains” value at c-Met is given as “A (the percentage of kinase activity remains is below 70%)”. Also, the remaining activity at 0.1 µM on VEGFR2 is < 70%.

For `Cc1c(F)cccc1NC(=O)Nc1cccc2c1ccn2Cc1ccnc2[nH]ccc12.Cl` [Example 59, 1-(2-Methyl-3-fluorophenyl)-3-[1-(1H-pyrrolo[2,3-b]pyridin-4-ylmethyl)-1H-indol-4-yl]urea hydrochloride], at c-Met, the “% c-Met kinase activity remains” value is on record as “A (the percentage of kinase activity remains is below 70%)”. Moreover, the remaining activity at 0.1 µM on VEGFR2 is < 70%.

In the case of `Cc1ccc(Br)c(NC(=O)Nc2cccc3c2ccn3Cc2ccnc3[nH]ccc23)c1.Cl` [Example 58, 1-(2-Bromo-5-methylphenyl)-3-[1-(1H-pyrrolo[2,3-b]pyridin-4-ylmethyl)-1H-indol-4-yl]urea hydrochloride], the “% c-Met kinase activity remains” value at c-Met is “A (the percentage of kinase activity remains is below 70%)”. Besides, on VEGFR2, the remaining activity at 0.1 µM was < 70%.

Regarding `COc1ccccc1NC(=O)Nc1cccc2c1ccn2Cc1c[nH]c2ncccc12.Cl` [Example 17, 1-(2-Methoxyphenyl)-3-[1-(1H-pyrrolo[2,3-b]pyridin-3-ylmethyl)-1H-indol-4-yl]urea hydrochloride], on c-Met, the “% c-Met kinase activity remains” value was “A (the percentage of kinase activity remains is below 70%)”. For the same molecule, on VEGFR2, the remaining activity at 0.1 µM is < 70%.

On to `O=C(Nc1ccccc1Cl)Nc1cccc2c1ccn2Cc1ccnc2[nH]ccc12` [Example 37, 1-(2-Chlorophenyl)-3-[1-(1H-pyrrolo[2,3-b]pyridin-4-ylmethyl)-1H-indol-4-yl]urea hydrochloride], for which the “% c-Met kinase activity remains” value on c-Met is “A (the percentage of kinase activity remains is below 70%)”. The remaining activity at 0.1 µM at VEGFR2 was < 70%.

In the case of `Cl.O=C(Nc1ccccc1F)Nc1cccc2c1ccn2Cc1ccnc2[nH]ccc12` [Example 34, 1-(2-Fluorophenyl)-3-[1-(1H-pyrrolo[2,3-b]pyridin-4-ylmethyl)-1H-indol-4-yl]urea hydrochloride], the “% c-Met kinase activity remains” value at c-Met is reported as “B (the percentage is greater or equal to 70%)”. Also, the remaining activity at 0.1 µM at VEGFR2 was < 70%.

As to `Cl.O=C(Nc1ccc(F)cc1)Nc1cccc2c1ccn2Cc1c[nH]c2ncccc12` [Example 7, 1-(4-Fluorophenyl)-3-[1-(1H-pyrrolo[2,3-b]pyridin-3-ylmethyl)-1H-indol-4-yl]urea hydrochloride], at c-Met, the “% c-Met kinase activity remains” value was “A (the percentage of kinase activity remains is below 70%)”. Besides, the remaining activity at 0.1 µM on VEGFR2 is < 70%.

As to `Cc1ccccc1NC(=O)Nc1cccc2c1ccn2Cc1c[nH]c2ncccc12.Cl` [Example 14, 1-(2-Methylphenyl)-3-[1-(1H-pyrrolo[2,3-b]pyridin-3-ylmethyl)-1H-indol-4-yl]urea hydrochloride], at c-Met, the “% c-Met kinase activity remains” value was “A (the percentage of kinase activity remains is below 70%)”. The remaining activity at 0.1 µM at VEGFR2 was < 70%.

As for `O=C(Nc1ccc(Cl)cc1)Nc1cccc2c1ccn2Cc1ccnc2[nH]ccc12` [Example 39, 1-(4-Chlorophenyl)-3-[1-(1H-pyrrolo[2,3-b]pyridin-4-ylmethyl)-1H-indol-4-yl]urea hydrochloride], the “% c-Met kinase activity remains” value on c-Met was “A (the percentage of kinase activity remains is below 70%)”. Moreover, the remaining activity at 0.1 µM on VEGFR2 was < 70%.

Regarding `Cl.O=C(Nc1ccc(Br)cc1)Nc1cccc2c1ccn2Cc1ccnc2[nH]ccc12` [Example 42, 1-(4-Bromophenyl)-3-[1-(1H-pyrrolo[2,3-b]pyridin-4-ylmethyl)-1H-indol-4-yl]urea hydrochloride], on c-Met, the “% c-Met kinase activity remains” value is given as “B (the percentage is greater or equal to 70%)”. Moreover, at VEGFR2, the remaining activity at 0.1 µM is < 70%.

Turning to `Cl.O=C(Nc1ccccc1Br)Nc1cccc2c1ccn2Cc1c[nH]c2ncccc12` [Example 11, 1-(2-Bromophenyl)-3-[1-(1H-pyrrolo[2,3-b]pyridin-3-ylmethyl)-1H-indol-4-yl]urea hydrochloride], at c-Met, the “% c-Met kinase activity remains” value was “A (the percentage of kinase activity remains is below 70%)”. Also, at VEGFR2, the remaining activity at 0.1 µM is ≥ 70%.

With `Cl.O=C(Nc1ccccc1F)Nc1cccc2c1ccn2Cc1c[nH]c2ncccc12` [Example 5, 1-(2-Fluorophenyl)-3-[1-(1H-pyrrolo[2,3-b]pyridin-3-ylmethyl)-1H-indol-4-yl]urea hydrochloride], the “% c-Met kinase activity remains” value on c-Met was “A (the percentage of kinase activity remains is below 70%)”. Besides, the remaining activity at 0.1 µM on VEGFR2 was ≥ 70%.

In the case of `Cl.O=C(Nc1cccc(Br)c1)Nc1cccc2c1ccn2Cc1ccnc2[nH]ccc12` [Example 41, 1-(3-Bromophenyl)-3-[1-(1H-pyrrolo[2,3-b]pyridin-4-ylmethyl)-1H-indol-4-yl]urea hydrochloride], at c-Met, the “% c-Met kinase activity remains” value is “B (the percentage is greater or equal to 70%)”. At VEGFR2, the remaining activity at 0.1 µM was ≥ 70%.

Turning to `Cc1ccc(NC(=O)Nc2cccc3c2ccn3Cc2ccnc3[nH]ccc23)cc1.Cl` [Example 45, 1-(4-Methylphenyl)-3-[1-(1H-pyrrolo[2,3-b]pyridin-4-ylmethyl)-1H-indol-4-yl]urea hydrochloride], the “% c-Met kinase activity remains” value on c-Met is listed as “A (the percentage of kinase activity remains is below 70%)”. The remaining activity at 0.1 µM at VEGFR2 was < 70%.

For the molecule `COc1ccccc1NC(=O)Nc1cccc2c1ccn2Cc1ccnc2[nH]ccc12.Cl` [Example 46, 1-(2-Methoxyphenyl)-3-[1-(1H-pyrrolo[2,3-b]pyridin-4-ylmethyl)-1H-indol-4-yl]urea hydrochloride], the “% c-Met kinase activity remains” value on c-Met is given as “B (the percentage is greater or equal to 70%)”. Further, the remaining activity at 0.1 µM on VEGFR2 is ≥ 70%.

Turning to `Cl.O=C(Nc1ccc(C(F)(F)F)cc1)Nc1cccc2c1ccn2Cc1c[nH]c2ncccc12` [Example 25, 1-(4-Trifluoromethylphenyl)-3-[1-(1H-pyrrolo[2,3-b]pyridin-3-ylmethyl)-1H-indol-4-yl]urea hydrochloride], the “% c-Met kinase activity remains” value at c-Met is reported as “A (the percentage of kinase activity remains is below 70%)”. For the same molecule, at VEGFR2, the remaining activity at 0.1 µM was ≥ 70%.
